Experimental data from ChEMBL document CHEMBL4376904, “Bifunctional Pyrimidines as Modulators of Focal Adhesion Kinase” (ACS Med Chem Lett, 2020).

Experiments:
[1] = species: Homo sapiens; assay: Protac activity at E3 Ubiquitin-protein ligase/Focal adhesion kinase in human PC3 cells assessed as induction of FAK protein degradation by immunoblotting analysis relative to control; format: cell-based
[2] = cells; conditions: Homo sapiens, PC-3

| DC50 [2] | Structure (SMILES) | Emax [1] |
| --- | --- | --- |
| – | Cc1ncsc1-c1ccc(CNC(=O)[C@@H]2C[C@@H](O)CN2C(=O)[C@@H](NC(=O)COCCCOc2ccc(Nc3ncc(C(F)(F)F)c(NCc4cccc(N(C)S(C)(=O)=O)c4)n3)cc2)C(C)(C)C)cc1 | 99% |
| – | Cc1ncsc1-c1ccc(CNC(=O)[C@@H]2C[C@@H](O)CN2C(=O)[C@@H](NC(=O)COCCOc2ccc(Nc3ncc(C(F)(F)F)c(NCc4cccc(N(C)S(C)(=O)=O)c4)n3)cc2)C(C)(C)C)cc1 | 99% |
| 3.3 nM | Cc1ncsc1-c1ccc(CNC(=O)[C@@H]2C[C@@H](O)CN2C(=O)[C@@H](NC(=O)CCOCCOc2ccc(Nc3ncc(C(F)(F)F)c(NCc4cccc(N(C)S(C)(=O)=O)c4)n3)cc2)C(C)(C)C)cc1 | 99% |
| – | CNC(=O)c1ccc(Nc2ncc(C(F)(F)F)c(NCc3nccnc3N(C)S(C)(=O)=O)n2)cc1 | 0% |
| – | CN(c1cccc(CNc2nc(Nc3ccc(OCCOCCOCCOCCOCCC(=O)NCCOc4cccc5c4C(=O)N(C4CCC(=O)NC4=O)C5=O)cc3)ncc2C(F)(F)F)c1)S(C)(=O)=O (stereo unspecified) | 87% |
| – | CN(c1cccc(CNc2nc(Nc3ccc(OCCCOCCC(=O)NCCOc4cccc5c4C(=O)N(C4CCC(=O)NC4=O)C5=O)cc3)ncc2C(F)(F)F)c1)S(C)(=O)=O (stereo unspecified) | 99% |
| 26.7 nM | CN(c1cccc(CNc2nc(Nc3ccc(OCCOCCOCCC(=O)NCCOc4cccc5c4C(=O)N(C4CCC(=O)NC4=O)C5=O)cc3)ncc2C(F)(F)F)c1)S(C)(=O)=O (stereo unspecified) | 99% |
| – | Cc1ncsc1-c1ccc(CNC(=O)[C@@H]2C[C@@H](O)CN2C(=O)[C@@H](NC(=O)CCOCCOCCOc2ccc(Nc3ncc(C(F)(F)F)c(NCc4cccc(N(C)S(C)(=O)=O)c4)n3)cc2)C(C)(C)C)cc1 | 99% |
| – | Cc1ncsc1-c1ccc(CNC(=O)[C@@H]2C[C@@H](O)CN2C(=O)[C@@H](NC(=O)CCOCCCOc2ccc(Nc3ncc(C(F)(F)F)c(NCc4cccc(N(C)S(C)(=O)=O)c4)n3)cc2)C(C)(C)C)cc1 | 99% |
